The source of these data is patent US20130123358A1, “Metabolic Benefits to Butyrate as a Chronic Diet Supplement” (priority 2009, published 2013).

The subject of experiment [1] is class I and class II histone deacetylases (HDACs). The following applies: cited from earlier work.
The next experiment concerns ruminant mammals. The following applies: intravenous use, including in the form of tributyrin; cited from earlier work.
Experiment [2] has as its system brown adipose tissue PGC-1α and UCP-1. Kind of experiment: Brown adipose tissue morphology, qRT-PCR and immunoblot. Type of experiment: in vivo, mouse. As for the experimental part:
Total RNA was extracted from frozen tissues (kept at −80° C.) using Tri-Reagent (T9424, Sigma) as described elsewhere (16). Taqman RT-PCR primer and probe were used to determine mRNA for PGC-1α (Mm00447183_m1), UCP-1 (Mm00494069_m1), PPARδ (Mm01305434_m1) and CPT1b (Mm00487200_m1). The reagents were purchased from Applied Biosystems (Foster City, Calif.). Mouse ribosome 18S rRNA_s1 (without intron-exon junction) was used as an internal control. Reaction was conducted with 7900 HT Fast real time PCR System (Applied Biosystems, Foster City, Calif.).
Fresh fat and muscles were collected and frozen in liquid nitrogen. The whole cell lysate protein was extract in lysis buffer with sonication and analyzed in western blot as described elsewhere (16). Antibodies were used in study of myoglobin (sc-25607, Santa Cruz), PGC-1 (sc-13068, Santa Cruz), Tubulin (ab7291, Abcam), myosin (M8421, Sigma), pAMPK (Thr 172, #2531, Cell signaling) and p-p38 (sc-7975, Santa Cruz). To detect multiple signals from one membrane, the membrane was stripped with a stripping buffer. Intensity of the immunoblot signal was quantified using a computer program, ImageJ 1.37v (NIH). The mean values of results from three experiments (6 mice each group) were presented. The antibodies to PGC-1α and UCP-1 were from Dr. Thomas Gettys at Pennington Biomedical Research Center, Baton Rouge, La.
Fresh tissues (muscle, fat and liver) were collected at 16 weeks of age after 12 weeks butyrate feeding and fixed in 10% neutral buffered formalin solution (HT50-1-2, Sigma). The tissue slides were obtained through serial cross-section cutting at 8 um thickness and processed with a standard procedure. Briefly, the slides were deparaffinated and stained in haematoxylin (#101542, Surgipath) for 15 min, and rinsed in water until sections are blue. Then, slides were stained in Eosin (E4009, Sigma), dehydrated quickly in 95% ethanol and treated with […]. The sections were mounted and photographed with Nikon microscope (Eclipse TS100, Japan).
In addition, the morphology and gene expression were examined in the brown fat of mice. Hematoxylin and eosin staining (H&E staining) was conducted on brown adipose tissues collected at 13 weeks on HFD. […] Compared to the control mice, the size of brown adipocytes was much smaller in the butyrate group (FIG. 4B), indicating a higher thermogenic activity that leads to the reduction in fat accumulation. Mitochondrial function is regulated by gene expression (24). To understand the molecular basis of the increased thermogenesis, the expression of two thermogenesis-related genes, such as PGC-1α and UCP-1, were examined in BAT. mRNA of both genes was increased in the butyrate-treated mice. Brown adipose tissues were collected at 13 weeks on HFD, and gene expression for PGC-1α and UCP-1 was examined by qRT-PCR. In addition, the corresponding proteins were assayed using a whole cell lysate (100 μg) resolved in SDS-PAGE and blotted with PGC-1α and UCP-1 antibodies. […] Data in FIGS. 4A-4D are presented as means±SE (n=9 mice). * P<0.05. This increase in gene expression provides a molecular basis for the enhanced thermogenesis by the butyrate treatment.

Setting [3] is: butyrate 5% w/w in HFD 13 weeks, immunoblot.
The mark [4] stands for this setting: butyrate 5% w/w in HFD 13 weeks, qRT-PCR.

Regarding `CCCC(=O)[O-].[Na+]` [sodium butyrate], the “effect on class I and class II HDACs” value in experiment [1] is “inhibition”. Further, the “serum glucose and insulin” value with ruminant mammals is listed as “increase”. The “size of brown adipocytes” value in experiment [2] (butyrate 5% w/w in HFD 13 weeks vs control, H&E) is “much smaller”. Further, in experiment [2] (setting [3]), the “PGC-1α protein in brown fat” value is given as “also increased” and the “UCP-1 protein in brown fat” value is listed as “also increased”. For the same compound, in experiment [2] (setting [4]), the “PGC-1α mRNA in BAT” value is reported as “increased” and the “UCP-1 mRNA in BAT” value is given as “increased”.
